Assays:
[1] = biological target: Norepinephrine Transporter (Human Recombinant) (Homo sapiens (Human), UniProt P23975); assay: Norepinephrine transporter (human recombinant) binding assay, [3H]-Nisoxetine; conditions: read-out: INH at 10 μM NET
Experimental: II: Norepinephrine Transporter (Human Recombinant) Binding Assay • This assay was carried out in accordance with the procedure described by Raisman, R, et al. Eur. Jrnl. Pharmacol. 78: 345-351 (1982) with modifications. See also, Langer, S., et al., Eur. Jrnl. Pharmacol, 72: 423-4 (1981). Tissue Preparation • 1. hrNET (Receptor Biology; RBNET) is diluted in assay buffer to 2.5 microunits/ml, so that each tube receives 0.5 microunits, or 2 microunits/ml. • NOTE: 100 microassays, add 20 mis of buffer. Binding Reaction • 1. Each tube receives the following components: • 25 ul drug or vehicle • 25 ul [^3H]-Nisoxetine • 200 ul tissue suspension. • 2. Initiate binding reaction with the addition of tissue, and incubate at room temperature for 1 hour. • 3. Terminate binding reaction by rapid filtration of tube contents onto 0.1% PEI treated GF/C filters (TopCount). • 4. Rinse the assay tubes once with ice cold 50 mM NaCl, then rapidly rinse the filters with 6×1 ml/tube of the same wash buffer. • 5. Radioactivity trapped onto the filters is assessed using liquid scintillation spectrophotometer after soaking the filters for at least 1 hour in scintillation cocktail. Materials and Reagents • 1. The receptor source is human recombinant/CHO. • 2. [^3H]-Nisoxetine, diluted to a concentration of 10 nM in assay buffer, is used as the radioligand. Thus, the final ligand concentration is 1 nM. • 3. Non specific binding is defined as that remaining in the presence of 1×10^−6M desipramine (MW=302.8) (Make fresh: in bag with dessicating rocks 1, dissolves in water 1E-3). • 4. The reference compound for the assay is desipramine. Desimpramine is run at following final concentrations: • 1×10^−10, 2×10^−10, 5×10^−10, 1×10^−9, 2×10^−9, 5×10^−9, 1×10^−8, 2×10^−8, 5×10^−8, 1×10^−7, 2×10^−7, 5×10^−7M • 5. The positive control is any of the above run at the final concentrations of: • 1×10^−9, 5×10^−9, 2×10^−8 M. • 6. The Kd for the receptor is 3 nM. Buffers

mice = assay: Open Field testing; assay type: in vivo, mouse; conditions: for Anxiolytic effects in Open Field testing: FIGS. 9A-9D
Experimental: Open Field testing was also performed. In carrying out this testing, individually housed male and female mice aged 8-12 weeks were used. The mice were maintained on a reverse L:D/12 p.m.: 12 a.m. cycle in a barrier facility. Food and water were available ad libitum. Testing occurred towards the end of the light cycle between 6-12 a.m. Mice were acclimated to the testing room for at least 30 minutes. The assay was performed in a custom-made Open Field Apparatus. Each chamber was a 50 by 50 cm square. The experiment was recorded and tracked by a tracking system obtained from Viewpoint.
The time and the path length in the center of the open field were determined. The center of the open field is defined as a 13.5×13.5 cm square in the geometric center of the arena. The percent of path in the center is calculated as
[formula] For each mouse, the total path length and path length for 60 minutes at 5 minute intervals was determined as a measure of locomotor activity. In addition, feces produced by each experimental animal during the test was counted. Each chamber was cleaned between individual mouse testing.
Path length for 60 minutes at 5 minute intervals was analyzed by repeat measures using SPSS software. All other parameters were compared using unpaired t-test (GraphPad Prism).

male Swiss Webster mice = assay: Time-course (8 hr) mouse locomotor activity testing; assay type: in vivo; conditions: for Duration of suppression of spontaneous locomotor activity: FIGS. 6A and 6B; for ID50 (dose producing 1/2 maximal depressant activity): IP; for Planned comparisons against the vehicle group, horizontal activity counts in period of maximal depressant effect: ps<0.05
Experimental: A dose response study was conducted of locomotor depression induced by the compound of Example 3, according to NIDA's Medication Development Division (MDD) locomoter activity studies standard protocol. The study was conducted using 40 Digiscan locomotor activity testing chambers (40.5×40.5×30.5 cm) housed in sets of two, within sound attenuating chambers. A panel of infrared beams (16 beams) and corresponding photodetectors were located in the horizontal direction along the sides of each activity chamber. A 7.5 W incandescent light above each chamber provided dim illumination. Fans provided an 80 dB ambient noise level within the chamber. Separate groups of 8 non-habituated male Swiss Webster mice (Hsd:ND4, aged 2-3 months) were injected via the intraperitoneal (IP) route with either vehicle (2% methyl cellulose) or the compound of Example 3, above, (3, 10, 30 or 100 mg/kg) twenty minutes prior to locomotor activity testing. Just piro to placement in the apparatus, all mice received a saline injection IP. In all studies, horizontal activity (interruption of photocell beams) was measured for 1 hour within 10 minute periods. Testing was conducted with one mouse per activity chamber.
A time course/dose response study of the locomotor depression inducing effect of the compound of Example 3 was conducted, according to the same MDD locomotor activity studies time course protocol described immediately above, except that groups of 8 mice were injected with either vehicle (2% methylcellulose) or the compound of Example 3 (3, 10, 30 or 100 mg/kg), immediately prior to locomotor activity testing. Behavioral observations were recorded on each mouse at 30, 120 and 480 minutes following 100 mg/kg of the test compound. The vehicle used in this study was 2% methylcellulose.
A separate time course/dose response study of the locomotor depression inducing effect of the compound of Example 6 was also conducted, under the same conditions described above for testing of the compound of Example 3. Additional groups of 8 mice were injected with either vehicle (2% methylcellulose) or the test compound (3, 10, 30 or 100 mg/kg), immediately prior to locomotor activity testing. Behavioral observations were recorded on each mouse at 30, 120 and 480 minutes following 100 mg/kg of the test compound. The vehicle used in this study was 2% methylcellulose.
(§1) Depressant effects of 30 and 100 mg/kg occurred within 10 minutes following injection and lasted 140 to 160 minutes. The period 20-50 min was selected for analysis of dose-response data because this was the time period in which maximal suppression first appeared as a function of dose. The mean average horizontal activity counts/10 min for this 30-min period were fit to a linear function of log10 dose of the descending portion of the dose-effect curve (3 to 100 mg/kg dose range).
as §1, with “of” for “of 30 and”, “lasted” for “lasted 140 to”, “50-80” for “20-50”, “(10” for “(3”

[2] = Tolerability and observable behavior changes; assay type: in vivo; conditions: for Well tolerated dose: in vivo; for Duration of observable changes in behavior: occurred in minutes

| Structure (SMILES) | inhibition at 10 µM [1] [%] | Locomotor activity in open field testing (mice; 10 and 90 mg/kg, FIG. 8) | Anxiolytic effects in Open Field testing (mice; 10 and 90 mg/kg) | Number of fecal boli in open field testing (mice; mouse, in vivo) | Onset of depressant effects following injection (male Swiss Webster mice; 30 and 100 mg/kg IP) [min] | Duration of suppression of spontaneous locomotor activity (male Swiss Webster mice) | ID50 (dose producing 1/2 maximal depressant activity) (male Swiss Webster mice; period 20-50 min, 3 to 100 mg/kg dose range) [mg/kg] | Planned comparisons against the vehicle group, horizontal activity counts in period of maximal depressant effect (male Swiss Webster mice) | Dosage above which subjects became lethargic [2] | Well tolerated dose [2] | Duration of observable changes in behavior [2] [h] | Duration of depressant effects (male Swiss Webster mice; 100 mg/kg IP) [min] | Onset of depressant effects following injection (male Swiss Webster mice; 100 mg/kg IP) [min] | ID50 (dose producing 1/2 maximal depressant activity) (male Swiss Webster mice; period 50-80 min, 10 to 100 mg/kg dose range) [mg/kg] | Lethargic effect (compared with Example 3) ([2]; higher concentrations) |
| --- | --- | --- | --- | --- | --- | --- | --- | --- | --- | --- | --- | --- | --- | --- | --- |
| Cc1ccc(C[n+]2[cH-]/c(=N\C(=O)Nc3ccccc3)on2)cc1 [Example 3, N-phenylcarbamoyl-3-(p-methyl-benzyl)-sydnonimine] | 14 | effective to reduce locomotor activity | demonstrable anxiolytic effects | no effect | ≤ 10 | at least 3 hours | ~24.0 | significant depressant effect for 30 and 100 mg/kg | above 125 kg/mg | at least 200 mg/kg | 2 to 3 | – | – | – | – |
| O=C(/N=c1\[cH-][n+](CCCc2ccccc2)no1)Nc1ccccc1 [Example 6, N-phenylcarbamoyl-3-(phenylpropyl)-sydnonimine] | 1.44 | – | induces anxiolytic effects | – | – | at least 3 hours | – | significant depressant effect for 100 mg/kg | – | at least 200 mg/kg | 2 to 3 | 160 | ≤ 10 | ~30.2 | this effect was reduced |
